For test [1], the target named is T1, Peroxisome proliferator-activated receptor delta (Mus musculus, UniProt P35396).
T1 sequence (P35396 whole entry): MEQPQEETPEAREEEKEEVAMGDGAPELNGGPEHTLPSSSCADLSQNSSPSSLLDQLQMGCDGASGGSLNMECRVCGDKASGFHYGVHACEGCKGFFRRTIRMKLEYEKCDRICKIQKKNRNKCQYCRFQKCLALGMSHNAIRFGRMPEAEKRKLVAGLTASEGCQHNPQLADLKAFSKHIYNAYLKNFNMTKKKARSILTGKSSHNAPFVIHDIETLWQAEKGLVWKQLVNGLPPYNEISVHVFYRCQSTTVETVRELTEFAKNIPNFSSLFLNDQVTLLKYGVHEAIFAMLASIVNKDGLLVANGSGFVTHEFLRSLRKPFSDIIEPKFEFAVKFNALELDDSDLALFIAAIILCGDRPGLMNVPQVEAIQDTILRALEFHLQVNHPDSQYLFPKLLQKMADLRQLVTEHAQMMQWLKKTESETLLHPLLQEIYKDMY
Kind of test: Agonist activity at mouse PPARdelta in Cos7 cells transfected with pBIND and pGL4.35 Gal4 UAS Luc reporter plasmid by measuring luciferase activity incubated for 16 hrs by luciferase reporter gene assay. Background: In a reporter assay the amount or activity of a reporter protein is the signal.

The test system of test [2] is HepG2. Briefly: Agonist activity against PPARalpha/delta (unknown origin) assessed as upregulation of CPT1A mRNA expression in human HepG2 cells incubated for 12 hrs by RT-PCR analysis. As to conditions: filed as agonist, dose 8-200 nM. The format is cell-based.
The subject of test [3] is HepG2. Kind of test: Agonist activity against PPARalpha/delta (unknown origin) assessed as upregulation of ACADVL mRNA expression in human HepG2 cells at 8 nM incubated for 12 hrs by RT-PCR analysis. The format is cell-based. Particulars: filed as agonist.
For test [4], the system named is Mus musculus. Briefly: In vivo agonist activity at PPARalpha/delta assessed as upregulation of Lpf5 mRNA expression in C57BL/6Nifdc mouse liver at 10 mg/kg, po for 4 days. The format is functional, organism-based. As to conditions: time 4.0 day.
Test [5] has as its system Mus musculus. Briefly: In vivo agonist activity at PPARalpha/delta assessed as upregulation of Gpd1 mRNA expression in C57BL/6Nifdc mouse liver at 10 mg/kg, po for 4 days. The format is functional, organism-based. As to conditions: time 4.0 day.
The subject of test [6] is Mus musculus. Briefly: In vivo agonist activity at PPARalpha/delta assessed as upregulation of Pex11a mRNA expression in C57BL/6Nifdc mouse liver at 10 mg/kg, po for 4 days. The format is functional, organism-based. Particulars: time 4.0 day.
The test system of test [7] is Mus musculus. Kind of test: In vivo agonist activity at PPARalpha/delta assessed as upregulation of Acadm-mRNA expression in C57BL/6Nifdc mouse liver at 10 mg/kg, po for 4 days. The format is functional, organism-based. As to conditions: time 4.0 day.
Test [8] has as its system Mus musculus. Kind of test: In vivo agonist activity against PPARalpha/delta assessed as upregulation of Ucp3 mRNA expression in C57BL/6Nifdc mouse liver at 10 mg/kg, po for 4 days. The format is functional, organism-based. Particulars: time 4.0 day.
Test [9] has as its system Mus musculus. Briefly: In vivo agonist activity against PPARalpha/delta assessed as upregulation of Mat2a mRNA expression in C57BL/6Nifdc mouse liver at 10 mg/kg, po for 4 days. The format is functional, organism-based. Particulars: time 4.0 day.
In test [10] the test system is Mus musculus. Kind of test: In vivo agonist activity against PPARalpha/delta assessed as upregulation of Acot1 mRNA expression in C57BL/6Nifdc mouse skeletal muscle at 10 mg/kg, po for 4 days. The format is functional, organism-based. Particulars: time 4.0 day.
Test [11] deals with COS7. Kind of test: Agonist activity at human CAR (48 to 324 residues) in Cos7 cells transfected with LBD-Gal4 and pGL435 Gal4 UAS Luc reporter plasmid at 10 uM by reporter gene assay. The format is cell-based.
The subject of test [12] is THP-1. Kind of test: Anti-inflammatory activity in human THP1-derived macrophages assessed as decrease in secretion of LPS-induced TNF-alpha level at 8 to 200 nM for 12 hrs by ELISA kit method. The format is functional, cell-based. Particulars: dose 8-200 nM. In general terms: An ELISA detects its analyte on a solid surface through an enzyme-linked reagent.
Test [13] has as its system Mus musculus. Briefly: Anti-fibrosis effect in HF-CDAA-induced nonalcoholic steatohepatitis C57BL/6JNifdc mouse model assessed as expression of Tgfb1 marker at 10 mg/kg, po after 20 hrs by Western blot analysis. The format is functional, organism-based. For orientation: A western blot detects proteins with antibodies after separation by electrophoresis.
Test [14] concerns Mus musculus. Kind of test: Anti-fibrosis effect in HF-CDAA-induced nonalcoholic steatohepatitis C57BL/6JNifdc mouse model assessed as expression of Col1a1 marker at 10 mg/kg, po after 20 hrs by Western blot analysis. The format is functional, organism-based.
Test [15] has as its system C2C12. Kind of test: Agonist activity against PPARalpha/delta (unknown origin) assessed as upregulation of Angpt14 mRNA expression in […] cells at 8 nM incubated for 12 hrs by RT-PCR analysis. Particulars: filed as agonist. The format is cell-based.
The subject of test [16] is AML12. Kind of test: Agonist activity against PPARalpha/delta (unknown origin) assessed as upregulation of Pdk4 mRNA expression in […] cells at 8 nM incubated for 12 hrs by RT-PCR analysis. The format is cell-based. Particulars: filed as agonist.

As usually defined, the EC50 is the concentration at which the effect is half-maximal. Low values mean greater potency, high ones weaker potency.

The structures appear in SMILES notation. Active and inactive are the calls of the source. The rule behind the calls is not given here.

`Cc1cc(Cn2ncn(-c3ccc(OC(F)(F)F)cc3)c2=O)cc(C)c1OC(C)(C)C(=O)O` displayed an EC50 in test [1] of 19.7 nM. The Activity entry in [2] was “Dose-Dependent Effect”. Further, the result in test [3], in [4], in test [5], in [6], in test [7] and in [8] was Active. Further, the outcome in [9], in [10], in test [12], in [13], in test [14] and in test [15] was Active. Also, the result in [16] was Active. Besides, in test [11], the outcome was inactive.

These data come from ChEMBL document CHEMBL5042526, “Design, Synthesis, and Biological Evaluation of Triazolone Derivatives as Potent PPARα/δ Dual Agonists for the Treatment of Nonalcoholic Steatohepatitis” (J Med Chem, 2022).
